pIC50: −log10 of the molar value. ≈ marks a conversion by molar mass, not a printed value. Where two headings read alike, the source gives them in different places.
Legend:
HIV-1(IIIB) (WT) = experiment: microbe, parasite or virus in culture; format: cell-based; settings: Human immunodeficiency virus 1, IIIB, CCRF-CEM
Experimental: (§1) CEM cells were suspended at 250,000 cells per ml of culture medium and infected with wild-type HIV-I(IIIB) or mutant HIV-1 strains at 100 50% cell culture infective doses per ml. Then 100 μl of the infected cell suspensions was added to 200-μl microtiter plate wells containing 100 μl of an appropriate dilution of the test compounds. After 4 days incubation at 37° C., the cell cultures were examined for syncytium formation.

HIV-1/V(0.5) 103-Asn = experiment: Sensitivity of mutant HIV-1 strain in CEM cell cultures; format: cell-based; settings: Table 5
Experimental: as §1

HIV-1/Nev (106-Ala) = experiment: as above; format: cell-based; settings: CEM cells, Table 1
Experimental: as §1

HIV-1/I(0.1) 103-Asn = experiment: as above; format: cell-based; settings: Table 5
Experimental: as §1

[1] = test system: HIV-1/V(0.1) 101-Ile + 141-Glu; experiment: as above; format: cell-based; settings: Table 5
Experimental: as §1

HIV-1/III(0.1) 103-Asn = experiment: as above; format: cell-based; settings: Table 5
Experimental: as §1

HIV-1/II(0.1) 100-Ile = experiment: as above; format: cell-based; settings: Table 5
Experimental: as §1

HIV-1/IV(0.1) 103-Thr = experiment: as above; format: cell-based; settings: Table 5
Experimental: as §1

HIV-1/B 101Glu = experiment: as above; format: cell-based; settings: Table 5
Experimental: as §1

[2] = test system: HIV-1/TIBO R82150 (100-Ile); experiment: as above; format: cell-based; settings: CEM cells, Table 1
Experimental: as §1

HIV-1/Pyr (181-Cys) = experiment: as above; format: cell-based; settings: CEM cells, Table 1
Experimental: as §1

[3] = test system: HIV-1/TIBO R82913 (103-Asn); experiment: as above; format: cell-based; settings: CEM cells, Table 1
Experimental: as §1

[4] = test system: HIV-1/TSAO-m^3 T (138-Lys); experiment: as above; format: cell-based; settings: CEM cells, Table 1
Experimental: as §1

HIV-1(IIIB) = experiment: Knock-out concentrations: breakthrough of HIV-1(IIIB)-induced cytopathicity in CEM cell cultures; format: cell-based
Experimental: The culture medium consisted of RPMI 1640 containing 10% fetal bovine serum, 2 mM L-glutamine, and 0.075% NaHCO3. The multiplicity of the initial infection was ~1000 times the CCID50 (50% cell culture infective dose). Passages were performed every 3 to 4 days by adding 0.5 to 1.0 ml of the infected culture supernatant to 5 ml of a suspension containing 4×10^5 uninfected CEM cells per ml. Syncytium formation was used as a parameter of virus breakthrough in the cell cultures. In the drug combination experiments, the compounds were combined at the same initial concentrations as used for the two lowest concentrations in the single-drug experiments.
The drug concentrations were kept constant throughout the whole time period of the experiment (10 subcultivations or 35 days). Then the drugs were removed from the cell cultures, and the cells were further subcultured for at least 5 additional passages.

HIV-1 RT (WT) = HIV-1 RT (WT) (Human immunodeficiency virus type 1 group M subtype B, UniProt P03366); experiment: biochemical; settings: IC50, anti-HIV-1 RT (WT) activity
Experimental: The reaction mixture (50 μl) contained 50 mM Tris.HCl, pH 7.8, 5 mM dithiothreitol, […] glutathione, 500 μM EDTA, 150 mM KCl, 5 mM MgCl2, 1.25 μg of bovine serum albumin, a fixed concentration of the labeled substrate [2,8-^3 H]dGTP (2.95 μM, 2 μCi), a fixed concentration of the template/primer poly(C).oligo(dG) (0.1 mM), 0.06% Triton X-100, 5 μl of inhibitor solution [containing various concentrations (5-fold dilutions) of the test compounds], and 5 μl of the RT preparation. The reaction mixtures were incubated at 37° C. for 30 min, at which time 100 μl of calf thymus DNA (150 μg/ml), 2 ml of Na4 P2 07 (0.1 M in 1M HCl), and 2 ml of trichloroacetic acid (10%, v/v) were added. The solutions were kept on ice for 30 min, after which the acid-insoluble material was washed and analyzed for radioactivity.
Compounds I, III, IV and V were evaluated for their inhibitory effect on recombinant HIV-1 RT.

[5] = CEM cells, Table 1, read-out: 50% Effective Concentration
[6] = HIV-1 (III8), Table 5, read-out: EC50
[7] = Human immunodeficiency virus 1, CCRF-CEM, read-out: EC50
[8] = Human immunodeficiency virus 1, CCRF-CEM, read-out: 50% Effective Concentration

Cc1ccnc2c1NC(=O)c1cccnc1N2C1CC1 [Nevirapine, reference compound]
EC50 (HIV-1(IIIB) (WT); [5]): 0.007 µg/mL (≈ 0.0263 µM)
EC50 (HIV-1(IIIB) (WT); [6]): 0.007 µg/mL (≈ 0.0263 µM)
EC50 (HIV-1/V(0.5) 103-Asn): ≥ 5 µg/mL
50% Effective Concentration (HIV-1/Nev (106-Ala)): 2.3 µg/mL
EC50 (HIV-1/I(0.1) 103-Asn): 1.7 µg/mL (≈ 6.38 µM)
EC50 [1]: 0.24 µg/mL (≈ 0.901 µM)
EC50 (HIV-1/III(0.1) 103-Asn): 0.38 µg/mL (≈ 1.43 µM)
EC50 (HIV-1/II(0.1) 100-Ile): ≥ 5 µg/mL
EC50 (HIV-1/IV(0.1) 103-Thr): 2.7 µg/mL (≈ 10.1 µM)
EC50 (HIV-1/B 101Glu): > 2.5 µg/mL
50% Effective Concentration [2]: 0.100 µg/mL
50% Effective Concentration (HIV-1/Pyr (181-Cys)): 2.30 µg/mL
50% Effective Concentration [3]: 1.5 µg/mL
50% Effective Concentration [4]: 0.030 µg/mL
HIV-1-induced cytopathicity in cell culture (HIV-1(IIIB); 0.1 μg/ml, day 4 post infection): 37.5 percentage of control
HIV-1-induced cytopathicity in cell culture (HIV-1(IIIB); 0.1 μg/ml, day 8 post infection): 87.5 percentage of control
HIV-1-induced cytopathicity in cell culture (HIV-1(IIIB); 0.1 μg/ml, day 11 post infection): 100 percentage of control
HIV-1-induced cytopathicity in cell culture (HIV-1(IIIB); 0.1 μg/ml, day 14 post infection): 100 percentage of control
HIV-1-induced cytopathicity in cell culture (HIV-1(IIIB); 0.1 μg/ml, day 17 post infection): 100 percentage of control
HIV-1-induced cytopathicity in cell culture (HIV-1(IIIB); 0.1 μg/ml, day 21 post infection): 100 percentage of control
HIV-1-induced cytopathicity in cell culture (HIV-1(IIIB); 0.1 μg/ml, day 25 post infection): 100 percentage of control
HIV-1-induced cytopathicity in cell culture (HIV-1(IIIB); 0.1 μg/ml, day 28 post infection): 100 percentage of control
HIV-1-induced cytopathicity in cell culture (HIV-1(IIIB); 0.1 μg/ml, day 32 post infection): 100 percentage of control
HIV-1-induced cytopathicity in cell culture (HIV-1(IIIB); 0.1 μg/ml, day 35 post infection): 100 percentage of control
HIV-1-induced cytopathicity in cell culture (HIV-1(IIIB); 0.1 μg/ml, day 39 post infection, compound absent from day 35): 100 percentage of control
HIV-1-induced cytopathicity in cell culture (HIV-1(IIIB); 0.1 μg/ml, day 42 post infection, compound absent from day 35): 100 percentage of control
HIV-1-induced cytopathicity in cell culture (HIV-1(IIIB); 0.1 μg/ml, day 46 post infection, compound absent from day 35): 100 percentage of control
HIV-1-induced cytopathicity in cell culture (HIV-1(IIIB); 0.1 μg/ml, day 49 post infection, compound absent from day 35): 100 percentage of control
HIV-1-induced cytopathicity in cell culture (HIV-1(IIIB); 0.1 μg/ml, day 53 post infection, compound absent from day 35): 100 percentage of control
HIV-1-induced cytopathicity in cell culture (HIV-1(IIIB); 0.5 μg/ml, day 4 post infection): 6.25 percentage of control
HIV-1-induced cytopathicity in cell culture (HIV-1(IIIB); 0.5 μg/ml, day 8 post infection): 25 percentage of control
HIV-1-induced cytopathicity in cell culture (HIV-1(IIIB); 0.5 μg/ml, day 11 post infection): 50 percentage of control
HIV-1-induced cytopathicity in cell culture (HIV-1(IIIB); 0.5 μg/ml, day 14 post infection): 100 percentage of control
HIV-1-induced cytopathicity in cell culture (HIV-1(IIIB); 0.5 μg/ml, day 17 post infection): 100 percentage of control
HIV-1-induced cytopathicity in cell culture (HIV-1(IIIB); 0.5 μg/ml, day 21 post infection): 100 percentage of control
HIV-1-induced cytopathicity in cell culture (HIV-1(IIIB); 0.5 μg/ml, day 25 post infection): 100 percentage of control
HIV-1-induced cytopathicity in cell culture (HIV-1(IIIB); 0.5 μg/ml, day 28 post infection): 100 percentage of control
HIV-1-induced cytopathicity in cell culture (HIV-1(IIIB); 0.5 μg/ml, day 32 post infection): 100 percentage of control
HIV-1-induced cytopathicity in cell culture (HIV-1(IIIB); 0.5 μg/ml, day 35 post infection): 100 percentage of control
HIV-1-induced cytopathicity in cell culture (HIV-1(IIIB); 0.5 μg/ml, day 39 post infection, compound absent from day 35): 100 percentage of control
HIV-1-induced cytopathicity in cell culture (HIV-1(IIIB); 0.5 μg/ml, day 42 post infection, compound absent from day 35): 100 percentage of control
HIV-1-induced cytopathicity in cell culture (HIV-1(IIIB); 0.5 μg/ml, day 46 post infection, compound absent from day 35): 100 percentage of control
HIV-1-induced cytopathicity in cell culture (HIV-1(IIIB); 0.5 μg/ml, day 49 post infection, compound absent from day 35): 100 percentage of control
HIV-1-induced cytopathicity in cell culture (HIV-1(IIIB); 0.5 μg/ml, day 53 post infection, compound absent from day 35): 100 percentage of control
HIV-1-induced cytopathicity in cell culture (HIV-1(IIIB); 2.5 μg/ml, day 4 post infection): 0 percentage of control
HIV-1-induced cytopathicity in cell culture (HIV-1(IIIB); 2.5 μg/ml, day 8 post infection): 0 percentage of control
HIV-1-induced cytopathicity in cell culture (HIV-1(IIIB); 2.5 μg/ml, day 11 post infection): 6.25 percentage of control
HIV-1-induced cytopathicity in cell culture (HIV-1(IIIB); 2.5 μg/ml, day 14 post infection): 25 percentage of control
HIV-1-induced cytopathicity in cell culture (HIV-1(IIIB); 2.5 μg/ml, day 17 post infection): 62.5 percentage of control
HIV-1-induced cytopathicity in cell culture (HIV-1(IIIB); 2.5 μg/ml, day 21 post infection): 100 percentage of control
HIV-1-induced cytopathicity in cell culture (HIV-1(IIIB); 2.5 μg/ml, day 25 post infection): 100 percentage of control
HIV-1-induced cytopathicity in cell culture (HIV-1(IIIB); 2.5 μg/ml, day 28 post infection): 100 percentage of control
HIV-1-induced cytopathicity in cell culture (HIV-1(IIIB); 2.5 μg/ml, day 32 post infection): 100 percentage of control
HIV-1-induced cytopathicity in cell culture (HIV-1(IIIB); 2.5 μg/ml, day 35 post infection): 100 percentage of control
HIV-1-induced cytopathicity in cell culture (HIV-1(IIIB); 2.5 μg/ml, day 39 post infection, compound absent from day 35): 100 percentage of control
HIV-1-induced cytopathicity in cell culture (HIV-1(IIIB); 2.5 μg/ml, day 42 post infection, compound absent from day 35): 100 percentage of control
HIV-1-induced cytopathicity in cell culture (HIV-1(IIIB); 2.5 μg/ml, day 46 post infection, compound absent from day 35): 100 percentage of control
HIV-1-induced cytopathicity in cell culture (HIV-1(IIIB); 2.5 μg/ml, day 49 post infection, compound absent from day 35): 100 percentage of control
HIV-1-induced cytopathicity in cell culture (HIV-1(IIIB); 2.5 μg/ml, day 53 post infection, compound absent from day 35): 100 percentage of control

CCc1cc(NCc2nc3c(Cl)ccc(Cl)c3o2)c(O)nc1C [Pyridinone L-697,661, 3-{[(4,7-dichloro-1,3-benzoxazol-2-yl)methyl]amino}-5-ethyl-6-methylpyridin-2(1H)-one, reference compound]
pIC50 (HIV-1 RT (WT)): 5.97
EC50 (HIV-1(IIIB) (WT); [5]): 0.007 µg/mL (≈ 0.0199 µM)
EC50 (HIV-1(IIIB) (WT); [6]): 0.007 µg/mL (≈ 0.0199 µM)
EC50 (HIV-1/V(0.5) 103-Asn; [7]): 0.55 µg/mL (≈ 1.56 µM)
EC50 (HIV-1/Nev (106-Ala); [8]): 0.24 µg/mL (≈ 0.681 µM)
EC50 (HIV-1/I(0.1) 103-Asn; [7]): 0.3 µg/mL (≈ 0.852 µM)
EC50 [1, 7]: 0.08 µg/mL (≈ 0.227 µM)
EC50 (HIV-1/III(0.1) 103-Asn; [7]): 0.03 µg/mL (≈ 0.0852 µM)
EC50 (HIV-1/II(0.1) 100-Ile; [7]): 0.63 µg/mL (≈ 1.79 µM)
EC50 (HIV-1/IV(0.1) 103-Thr; [7]): 0.5 µg/mL (≈ 1.42 µM)
EC50 (HIV-1/B 101Glu; [7]): 0.035 µg/mL (≈ 0.0994 µM)
EC50 [2, 8]: 0.18 µg/mL (≈ 0.511 µM)
EC50 (HIV-1/Pyr (181-Cys); [8]): 3.67 µg/mL (≈ 10.4 µM)
EC50 [3, 8]: 0.5 µg/mL (≈ 1.42 µM)
EC50 [4, 8]: 0.17 µg/mL (≈ 0.483 µM)
